{
  "source": "paper PMC7367283",
  "about": "“A PIP2 substitute mediates voltage sensor-pore coupling in KCNQ activation” (Communications Biology, 2020)",
  "target": "KCNQ2/KCNQ3* (Homo sapiens, UniProt O43525+O43526, A315T)",
  "assay": "Two-electrode voltage clamp of KCNQ2+KCNQ3* in Xenopus oocytes",
  "assay_type": "cell-based",
  "details": "Q2/Q3*, individual oocytes",
  "description": "KCNQ2 and KCNQ3 form a channel complex that carries M currents in neurons. Similar to KCNQ1, these KCNQ subunits require PIP2 for voltage-dependent activation. KCNQ2 alone can express functional channels in Xenopus oocytes, while KCNQ3 alone cannot. However, a single mutation, A315T, allows KCNQ3 to functionally express in Xenopus oocytes. We examined the effects of CP1 on KCNQ2, KCNQ3 with mutation A315T (denoted as KCNQ3*), KCNQ2+KCNQ3, and KCNQ2+KCNQ3* expressed in Xenopus oocytes (Fig. 5a). Similar to the effects on KCNQ1 and IKs channels, CP1 changed the amplitude of currents (Fig. 5b), shifted the G–V relation to more negative voltages (Fig. 5c), and slowed the deactivation kinetics (Fig. 5d) for all of these KCNQ channels. These CP1 effects were relatively small on KCNQ2 as compared with those on other KCNQ channels, and the effects on KCNQ2/KCNQ3* and KCNQ2/KCNQ3 complexes were closer to those on KCNQ2 alone.\nFig. 5 Subtype selectivity of CP1 on KCNQ channels. a Current traces of KCNQ channels as indicated in the absence and the presence of 10 µM CP1. […]\nThe whole-oocyte ionic currents were recorded with a GeneClamp 500B amplifier (Axon Instruments, CA) or iTEV90 amplifier (HEKA, Germany) and then sampled at 1 kHz and low-pass-filtered at 2 kHz. […] The Kir1.1 current was recorded with a high K^+ bath solution containing (in mM) 96 KCl, 4 NaCl, 1 CaCl2, 2 MgCl2, and 10 HEPES, pH 7.3–7.4. The HCN4 current was recorded in ND66 solution containing (in mM) 66 NaCl, 32 KCl, 1.8 CaCl2, 1 MgCl2, and 5 HEPES, pH 7.6. All the other potassium channels were recorded in ND96 solution. The currents of CaV1.2 channel were recorded in 40 mM Ba^2+ bath solution containing (in mM) 40 Ba(OH)2, 50 TEA-OH, 2 KOH, and 5 HEPES, adjusted to pH 7.4 with methanesulfonic acid. […] The HCN4 currents were recorded by a test pulse between −30 and −140 mV in 10-mV step from a holding potential of −30 mV. […]",
  "note": "“And” between values parts separate entries of the source, which are not always exact repeats. Equal entries are not always repeated.",
  "data": [
    {"smiles": "O=S(=O)([O-])Oc1c(-c2sc3c(ccc4cccc(Cl)c43)c2OS(=O)(=O)[O-])[nH]c2ccc(Br)cc12.[Na+].[Na+]", "note": "[CP1, DISODIUM 5-BROMO-2-[9-CHLORO-3-(SULFONATOOXY) NAPHTHO [1,2-B] THIEN-2-YL]-1H-INDOL-3-YL SULFATE]", "values": [
      {"measurement": "outward current (Icp1/Ictrl)", "setting": "10 µM CP1, at −10 mV", "value": "1.1575 and 0.9892 and 1.0474 and 1.088"},
      {"measurement": "∆V1/2", "setting": "10 µM CP1", "value": "15.9435 mV and 15.3238 mV and 21.3532 mV and 15.8237 mV"},
      {"measurement": "τ deact at -120 mV", "setting": "10 µM CP1 treated", "value": "0.0814 s and 0.0836 s and 0.1825 s and 0.1031 s and 0.1951 s"}
    ]}
  ]
}
